Test results published in patent US20060189546A1, “Compounds for treating autoimmune and demyelinating diseases” (priority 2005, published 2006).

System: colorectal cancer cell lines (HT29 & HCT116)
Test: Microarray gene expression, cells grown with Symadex at the GI50 concentration
Assay type: cell-based, human
Description: Two colorectal cancer cell lines (HT29 & HCT116) were chosen for study, whose behavior as rapidly proliferating invasive cells could be generalized to many other such cell types from different tissue origins. The two lines were immortalized colon carcinomas. Their gene expression patterns are known to mimic the behavior of neuro-enteric cells and therefore provide an appropriate simulation of the kinds of regulatory patterns that would be found in cells of similar epithelial or endothelial origin. Cells with these ontological roots are also suitable models for the kinds of autoimmune and inflammatory susceptibilities that are common in tissues of neuroenteric origin, such as those in which inflammatory bowel disease would present itself.
Frozen cell pellets were lysed in triplicate and total RNA isolated by purification over spin columns (all reagents from Ambion). After QC acceptance for purity, total RNA was converted to cRNA by linear amplification and 10 μg samples were applied to CodeLink Human Whole Genome Bioarrays (GE Healthcare and GenUs Biosystems).
Arrays were processed in triplicate and comparisons made after robust statistical analysis of replicate variability. […] False discovery rates and representation in standardized gene ontologies/pathways were then determined by filtering the “fold” changes in expression with open access software packages, EASE and GoMiner, and with Pathways Analysis (Ingenuity Systems). Functional annotations were then explored further in the MedMiner literature search environment.
A listing of these is shown in Table 3, in which the first column data presents the fold change against control, the second column cites the gene symbol, the third column cites the Genbank Accession, and the fourth column provides an abridged description of the gene's function.

## CCN(CC)CCNc1ccc2ncn3c4ccc(O)cc4c(=O)c1c23 [Symadex™, 5-[[(diethylamino)ethyl]amino]-8-hydroxyimidazo[4,5,1-de]-acridine-6-one]
  fold down-regulation of SULT4A1: ~300 fold
  fold down-regulation of SYNE1: 1500 fold
AA188573
  Mean fold change over control: NT5C3: −2.08
AA279477
  Mean fold change over control: SLC9A7: −8.20
AA496141
  Mean fold change over control: PPP2R5A: −36.93
AA664719
  Mean fold change over control: ACYP1: −2.07
AA708864
  Mean fold change over control: PRLR: −25.92
AA873769
  Mean fold change over control: UBL4: −10.12
AB033048
  Mean fold change over control: PPP1R9A: −26.54
AB058781
  Mean fold change over control: MAP6: −12.89
AF250847
  Mean fold change over control: ASAH2: −2.21
AI064964
  Mean fold change over control: MTIF2: −59.05
AI079911
  Mean fold change over control: NEB: −6.89
AI364966
  Mean fold change over control: MGAT4A: −10.83
AI630242
  Mean fold change over control: EIF2AK4: −15.24
AI659245
  Mean fold change over control: ATP1B4: −8.24
AI671488
  Mean fold change over control: VAPA: −12.46
AI674778
  Mean fold change over control: PAFAH1B1: −12.85
AK090763
  Mean fold change over control: PMPCB: −15.36
AK095107
  Mean fold change over control: IL1RAP: −11.23
AK098228
  Mean fold change over control: PFKL: −10.55
AL118561
  Mean fold change over control: KIF5A: −11.04
AL565198
  Mean fold change over control: LNX: −87.48
AL713608
  Mean fold change over control: ACTA2: −17.00
AU127142
  Mean fold change over control: DHFR: −2.95
AW051366
  Mean fold change over control: SIN3B: −2.93
AW139027
  Mean fold change over control: NDUFV3: −10.52
AW603708
  Mean fold change over control: TSFM: −2.11
AW969600
  Mean fold change over control: PXN: −6.00
BC047734
  Mean fold change over control: PTPRG: −18.91
BF093914
  Mean fold change over control: TRA2A: −2.55
BF308998
  Mean fold change over control: RPL4: −39.17
BF926082
  Mean fold change over control: PLXNA3: −8.04
BF959890
  Mean fold change over control: ITGA9: −27.91
BG505162
  Mean fold change over control: MT2A: −2.09
BG739826
  Mean fold change over control: PECAM1: −17.53
BI021745
  Mean fold change over control: NCF1: −33.67
BI715309
  Mean fold change over control: FNTA: −9.02
BI769614
  Mean fold change over control: RB1: −84.42
BM665467
  Mean fold change over control: ENG: −6.35
BM684446
  Mean fold change over control: MT1A: −16.21
BM693455
  Mean fold change over control: RPS3: −68.37
BM714794
  Mean fold change over control: MAPT: −26.53
BM994339
  Mean fold change over control: NT5E: −17.10
BQ053282
  Mean fold change over control: MXD3: −2.66
BU533957
  Mean fold change over control: RYR3: −2.43
BU607554
  Mean fold change over control: ZNF145: −30.18
BX106711
  Mean fold change over control: CASR: −11.45
BX111619
  Mean fold change over control: EIF4EL3: −15.36
BX116836
  Mean fold change over control: GNAL: −18.16
CB992712
  Mean fold change over control: GPR1: −11.49
CD678960
  Mean fold change over control: OLR1: −16.33
H57815
  Mean fold change over control: TMPO: −2.64
NM_000020
  Mean fold change over control: ACVRL1: −9.43
NM_000029
  Mean fold change over control: AGT: −22.71
NM_000039
  Mean fold change over control: APOA1: −13.15
NM_000057
  Mean fold change over control: BLM: −2.58
NM_000089
  Mean fold change over control: COL1A2: −54.48
NM_000103
  Mean fold change over control: CYP19A1: −20.65
NM_000138
  Mean fold change over control: FBN1: −13.00
NM_000164
  Mean fold change over control: GIPR: −19.73
NM_000169
  Mean fold change over control: GLA: −2.51
NM_000347
  Mean fold change over control: SPTB: −16.71
NM_000419
  Mean fold change over control: ITGA2B: −10.64
NM_000433
  Mean fold change over control: NCF2: −21.83
NM_000436
  Mean fold change over control: OXCT: −2.68
NM_000451
  Mean fold change over control: SHOX: −7.34
NM_000457
  Mean fold change over control: HNF4A: −7.42
NM_000475
  Mean fold change over control: NR0B1: −15.94
NM_000550
  Mean fold change over control: TYRP1: −12.47
NM_000640
  Mean fold change over control: IL13RA2: −9.79
NM_000669
  Mean fold change over control: ADH1C: −12.02
NM_000745
  Mean fold change over control: CHRNA5: −2.14
NM_000788
  Mean fold change over control: DCK: −1.94
NM_000808
  Mean fold change over control: GABRA3: −10.14
NM_000946
  Mean fold change over control: PRIM1: −3.47
NM_001039
  Mean fold change over control: SCNN1G: −14.52
NM_001045
  Mean fold change over control: SLC6A4: −19.44
NM_001117
  Mean fold change over control: ADCYAP1: −21.74
NM_001168
  Mean fold change over control: BIRC5: −1.91
NM_001198
  Mean fold change over control: PRDM1: −3.78
NM_001316
  Mean fold change over control: CSE1L: −2.53
NM_001488
  Mean fold change over control: TADA2L: −2.04
NM_001541
  Mean fold change over control: HSPB2: −13.76
NM_001711
  Mean fold change over control: BGN: −12.57
NM_001779
  Mean fold change over control: CD58: −2.40
NM_001786
  Mean fold change over control: CDC2: −2.09
NM_001790
  Mean fold change over control: CDC25C: −2.99
NM_001826
  Mean fold change over control: CKS1B: −2.38
NM_001881
  Mean fold change over control: CREM: −2.13
NM_001941
  Mean fold change over control: DSC3: −89.97
NM_001948
  Mean fold change over control: DUT: −2.08
NM_001996
  Mean fold change over control: FBLN1: −17.42
NM_002000
  Mean fold change over control: FCAR: −11.62
NM_002105
  Mean fold change over control: H2AFX: −2.31
NM_002106
  Mean fold change over control: H2AFZ: −2.35
NM_002128
  Mean fold change over control: HMGB1: −1.97
NM_002137
  Mean fold change over control: HNRPA2B1: −1.93
NM_002185
  Mean fold change over control: IL7R: −25.20
NM_002208
  Mean fold change over control: ITGAE: −2.12
NM_002243
  Mean fold change over control: KCNJ15: −6.83
NM_002274
  Mean fold change over control: KRT13: −3.34
NM_002341
  Mean fold change over control: LTB: −12.57
NM_002358
  Mean fold change over control: MAD2L1: −3.14
NM_002383
  Mean fold change over control: MAZ: −1.89
NM_002452
  Mean fold change over control: NUDT1: −1.89
NM_002490
  Mean fold change over control: NDUFA6: −2.51
NM_002491
  Mean fold change over control: NDUFB3: −15.58
NM_002503
  Mean fold change over control: NFKBIB: −2.01
NM_002528
  Mean fold change over control: NTHL1: −2.34
NM_002572
  Mean fold change over control: PAFAH1B2: −2.25
NM_002594
  Mean fold change over control: PCSK2: −16.89
NM_002692
  Mean fold change over control: POLE2: −2.62
NM_002754
  Mean fold change over control: MAPK13: −2.14
NM_002875
  Mean fold change over control: RAD51: −2.21
NM_002916
  Mean fold change over control: RFC4: −2.02
NM_002947
  Mean fold change over control: RPA3: −2.54
NM_003017
  Mean fold change over control: SFRS3: −2.84
NM_003024
  Mean fold change over control: ITSN1: −15.06
NM_003068
  Mean fold change over control: SNAI2: −17.45
NM_003140
  Mean fold change over control: SRY: −13.79
NM_003220
  Mean fold change over control: TFAP2A: −11.00
NM_003258
  Mean fold change over control: TK1: −2.34
NM_003269
  Mean fold change over control: NR2E1: −54.82
NM_003284
  Mean fold change over control: TNP1: −36.20
NM_003318
  Mean fold change over control: TTK: −2.24
NM_003384
  Mean fold change over control: VRK1: −2.79
NM_003472
  Mean fold change over control: DEK: −2.36
NM_003476
  Mean fold change over control: CSRP3: −26.26
NM_003575
  Mean fold change over control: ZNF282: −31.24
NM_003593
  Mean fold change over control: FOXN1: −9.60
NM_003600
  Mean fold change over control: STK6: −1.92
NM_003612
  Mean fold change over control: SEMA7A: −16.54
NM_003642
  Mean fold change over control: HAT1: −2.63
NM_003653
  Mean fold change over control: COPS3: −2.54
NM_003656
  Mean fold change over control: CAMK1: −1.92
NM_003856
  Mean fold change over control: IL1RL1: −28.60
